{"source": "patent US7629318B2", "about": "“Immunosuppressant compounds, methods and uses related thereto” (priority 2002, dated 2009)", "key": {"[1]": {"target": "T1, LG2 (DR1: DRA1*0101 DRB1*0101) cells (Homo sapiens, UniProt P01903+P01911, A100R/D57E/F55L/F60I/F76Y/I96L/L162R/M171V/P40L/Q125E/R42F/V115G/Y59C)", "T1 construct": "MHC II Proteins Expressed on PRIESS and LG2 Cells; endogenous in cells; host or cells: LG2 cells", "experiment": "Competitive binding to MHC II proteins expressed on LG2 cells", "assay_type": "cell-based", "conditions": "for IC50: Cell binding IC50 (uM) LG2 (0101), LG2 (0101)", "in_short": "(§1)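 LG2 or Priess cells incubated 4 h at 37° C, 6% CO2 in 1% FCS with 10-fold compound dilutions (series 16 nM-1615 μM) and biotinylated-detectable indicator peptide (16 μM solution added). Lysates captured 2 h at 4° C; bound peptide detected via europium-streptavidin time-resolved fluorescence (ex 340, em 613 nm).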"}, "[2]": {"experiment": "Stability of compounds in mouse blood plasma", "assay_type": "in vitro ADME", "in_short": "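Compounds at 5 μM final in rat, mouse or human plasma, incubated at 37 °C and sampled at 0, 6 and 24 h. Proteins precipitated with acetonitrile and the supernatant dried and reconstituted in 50% acetonitrile/0.1% TFA. PBS controls run for unstable compounds.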"}, "[3]": {"target": "T2, Priess (DR4Dw4: DRA1*0101 DRB1*0401) cells (Homo sapiens, UniProt P01903+P01911, A100K/A169T/F76Y/I96L/K127E/L162R/M171V/N62H/P40V/Q125Y/R42H/S133A/S149N/S66Y/V115G/V209L/W38E)", "T2 construct": "MHC II Proteins Expressed on PRIESS and LG2 Cells; endogenous in cells; host or cells: Priess cells", "experiment": "Competitive binding to MHC II proteins expressed on Priess cells", "assay_type": "cell-based", "in_short": "as §1"}, "[4]": {"test_system": "T-cell proliferation, lymph node cells of chimeric 0401-IE transgenic mice", "conditions": "DR4-LN; for Immunsupressive assays DR4-LN (Max) % Inhibition: maximal inhibition; for IC50: read-out: Immunsupressive assays DR4-LN (IC50)", "in_short": "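Antigen-primed lymph node cells (1.5×10^5/well) from mice lacking murine class II and carrying a chimeric human RA-associated class II transgene, cultured 3 days with ovalbumin at half-maximal dose plus compound (~0.1–200 uM) in serum-free HL-1. Proliferation read by 3H-thymidine incorporation over the final 16 h.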"}}, "note": "Several values for one entry are separate records, joined by “and”; a condition that tells them apart may be missing. Equal values may be shown once. Numbered stars: 1 amine (or outer) side, 2 acyl side, 3 side chain; on linkers, the order of the positions; unused ones are H or OH. Square brackets hold non-standard residues; d marks the D form. Peptide text beside a SMILES is read from it. * marks the point of attachment. ξ: configuration not given here. Gly(1-amidinopiperidin-4-yl) = N=C(N)N1CCC([C@H](N)C(=O)O)CC1; X1 = CC(C)c1oc([C@H](CO)N[*:1])nc1C(=O)[*:2]; Pro(3R-Ph) = O=C(O)[C@H]1NCC[C@@H]1c1ccccc1; Met(O) = CS(=O)CC[C@H](N)C(=O)O; Tic = O=C(O)[C@@H]1Cc2ccccc2CN1; Cha = N[C@@H](CC1CCCCC1)C(=O)O; NMe(benzyl) = CN(Cc1ccccc1)*; ξDisc = O=C(O)C1NCc2ccccc21; Nle = CCCC[C@H](N)C(=O)O; X3 = OCCOCCN*"}
{"smiles": "CSCC[C@H](NC(=O)C1c2ccccc2CN1C(=O)[C@H](CCCNC(=N)N)NC(=O)[C@H](CC1CCCCC1)NC(C)=O)C(N)=O", "note": "(stereo partly drawn) [Compound P12-1, Ac-Cha-Arg-Disc-Met-NH2] (Ac-[Cha]R[ξDisc]M-NH2)", "values": [{"measurement": "IC50", "setting": "[1]", "result": 9.6, "unit": "µM"}, {"measurement": "Stability (Arbitrary units) Mouse 6 h", "setting": "[2]", "result": 76, "unit": "Arbitrary units"}, {"measurement": "Stability (Arbitrary units) Mouse 24 h", "setting": "[2]", "result": 38, "unit": "Arbitrary units"}, {"measurement": "IC50", "setting": "[3]", "result": 6.7, "unit": "µM"}, {"measurement": "Immunsupressive assays DR4-LN (Max) % Inhibition", "setting": "[4]", "result": 5, "unit": "%"}, {"measurement": "IC50", "setting": "[4]", "result": "> 200", "unit": "µM"}]}
{"smiles": "CCCC[C@H](NC(=O)[C@@H]1Cc2ccccc2CN1C(=O)[C@@H](NC(=O)[C@H](CC1CCCCC1)NC(C)=O)C1CCN(C(=N)N)CC1)C(=O)NCCOCCO", "note": "[Compound P70, Ac-Cha-Gpg-Tic-Nle-N(H)CH2CH2OCH2CH2OH] (Ac-[Cha][Gly(1-amidinopiperidin-4-yl)][Tic][Nle]-X3)", "values": [{"measurement": "IC50", "setting": "[1]", "result": 5.7, "unit": "µM"}, {"measurement": "Stability (Arbitrary units) Mouse 6 h", "setting": "[2]", "result": 105, "unit": "Arbitrary units"}, {"measurement": "Stability (Arbitrary units) Mouse 24 h", "setting": "[2]", "result": 82, "unit": "Arbitrary units"}, {"measurement": "IC50", "setting": "[3]", "result": 8.6, "unit": "µM"}, {"measurement": "Immunsupressive assays DR4-LN (Max) % Inhibition", "setting": "[4]", "result": 54, "unit": "%"}, {"measurement": "IC50", "setting": "[4]", "result": 42, "unit": "µM"}]}
{"smiles": "CSCC[C@H](NC(=O)C1c2ccccc2CN1C(=O)[C@@H](NC(=O)[C@H](CC1CCCCC1)NC(C)=O)C1CCN(C(=N)N)CC1)C(=O)N1CC[C@H](c2ccccc2)[C@H]1C(=O)N[C@@H](CO)c1nc(C(=O)N(C)C)c(C(C)C)o1", "note": "(stereo partly drawn) [Compound P41-1, Ac-Cha-Gpg-Disc-Met-βPhPro-[S(oxaz)L]-NMe2] (Ac-[Cha][Gly(1-amidinopiperidin-4-yl)][ξDisc]M[Pro(3R-Ph)][X1]-NMe2)", "values": [{"measurement": "IC50", "setting": "[1]", "result": 3.8, "unit": "µM"}, {"measurement": "Stability (Arbitrary units) Mouse 6 h", "setting": "[2]", "result": 100, "unit": "Arbitrary units"}, {"measurement": "Stability (Arbitrary units) Mouse 24 h", "setting": "[2]", "result": 111, "unit": "Arbitrary units"}, {"measurement": "IC50", "setting": "[3]", "result": 3.7, "unit": "µM"}, {"measurement": "Immunsupressive assays DR4-LN (Max) % Inhibition", "setting": "[4]", "result": 96, "unit": "%"}, {"measurement": "IC50", "setting": "[4]", "result": 49, "unit": "µM"}]}
{"smiles": "CCCC[C@H](NC(=O)C1c2ccccc2CN1C(=O)[C@H](CCCNC(=N)N)NC(=O)[C@H](CC1CCCCC1)NC(C)=O)C(=O)N(C)Cc1ccccc1", "note": "(stereo partly drawn) [Compound P72-1, Ac-Cha-Arg-Disc-Nle-N(Me)Bn] (Ac-[Cha]R[ξDisc][Nle]-{NMe(benzyl)})", "values": [{"measurement": "IC50", "setting": "[1]", "result": 12, "unit": "µM"}, {"measurement": "Stability (Arbitrary units) Mouse 6 h", "setting": "[2]", "result": 97, "unit": "Arbitrary units"}, {"measurement": "Stability (Arbitrary units) Mouse 24 h", "setting": "[2]", "result": 75, "unit": "Arbitrary units"}, {"measurement": "IC50", "setting": "[3]", "result": 7.5, "unit": "µM"}, {"measurement": "Immunsupressive assays DR4-LN (Max) % Inhibition", "setting": "[4]", "result": 103, "unit": "%"}, {"measurement": "IC50", "setting": "[4]", "result": 31, "unit": "µM"}]}
{"smiles": "CC(=O)N[C@@H](CC1CCCCC1)C(=O)N[C@H](C(=O)N1Cc2ccccc2C[C@H]1C(=O)N[C@@H](CC[S+](C)[O-])C(=O)N1CC[C@H](c2ccccc2)[C@H]1C(=O)N[C@@H](CO)c1nc(C(=O)N(C)C)c(C(C)C)o1)C1CCN(C(=N)N)CC1", "note": "(stereo partly drawn) [Compound P47, Ac-Cha-Gpg-Tic-Met(O)-βPhPro-[S(oxaz)L]-NMe2] (Ac-[Cha][Gly(1-amidinopiperidin-4-yl)][Tic][Met(O)][Pro(3R-Ph)][X1]-NMe2)", "values": [{"measurement": "IC50", "setting": "[1]", "result": 4.6, "unit": "µM"}, {"measurement": "binding to MHC class II protein expressed on the surface of LG2 cells", "setting": "[1]; compared to the Arg-containing equivalent", "result": "Improved binding"}, {"measurement": "Stability (Arbitrary units) Mouse 6 h", "setting": "[2]", "result": 126, "unit": "Arbitrary units"}, {"measurement": "Stability (Arbitrary units) Mouse 24 h", "setting": "[2]", "result": 111, "unit": "Arbitrary units"}, {"measurement": "IC50", "setting": "[3]", "result": 6.9, "unit": "µM"}, {"measurement": "Immunsupressive assays DR4-LN (Max) % Inhibition", "setting": "[4]", "result": 77, "unit": "%"}, {"measurement": "IC50", "setting": "[4]", "result": 77, "unit": "µM"}]}
{"smiles": "CCCC[C@H](NC(=O)C1c2ccccc2CN1C(=O)[C@@H](NC(=O)[C@H](CC1CCCCC1)NC(C)=O)C1CCN(C(=N)N)CC1)C(=O)N1CC[C@H](c2ccccc2)[C@H]1C(=O)N[C@@H](CO)c1nc(C(=O)N(C)C)c(C(C)C)o1", "note": "(stereo partly drawn) [Compound P81-1] (Ac-[Cha][Gly(1-amidinopiperidin-4-yl)][ξDisc][Nle][Pro(3R-Ph)][X1]-NMe2)", "values": [{"measurement": "IC50", "setting": "[1]", "result": 5, "unit": "µM"}, {"measurement": "Stability (Arbitrary units) Mouse 6 h", "setting": "[2]", "result": 87, "unit": "Arbitrary units"}, {"measurement": "Stability (Arbitrary units) Mouse 24 h", "setting": "[2]", "result": 84, "unit": "Arbitrary units"}, {"measurement": "IC50", "setting": "[3]", "result": 3.4, "unit": "µM"}, {"measurement": "IC50", "setting": "[4]", "result": 63, "unit": "µM"}]}
{"smiles": "CSCC[C@H](NC(=O)[C@@H]1Cc2ccccc2CN1C(=O)[C@H](CCCNC(=N)N)NC(=O)[C@H](CC1CCCCC1)NC(C)=O)C(N)=O", "note": "[Compound P1, Ac-Cha-Arg-Tic-Met-NH2] (Ac-[Cha]R[Tic]M-NH2)", "values": [{"measurement": "IC50", "setting": "[1]", "result": "8.8 µM and 6.8 µM"}, {"measurement": "Stability (Arbitrary units) Mouse 24 h", "setting": "[2]", "result": 5, "unit": "Arbitrary units"}, {"measurement": "IC50", "setting": "[3]", "result": 11, "unit": "µM"}, {"measurement": "Immunsupressive assays DR4-LN (Max) % Inhibition", "setting": "[4]", "result": 41, "unit": "%"}, {"measurement": "IC50", "setting": "[4]", "result": "64 µM and 84 µM"}]}
